≈ marks a conversion by molar mass, not a printed value.
How the values were obtained:
Assay in all cases: Microtiter plate laser nephelometry (MLN) growth test
Assay type in all cases: cell-based
[1] = test system: Trichophyton soudanense DSM 103786; conditions: DSM103786, T. soudanense; for MIC: plating of wells without visible growth in the MLN-test; for IC50: spore suspension in SGB, 37 °C, 120 h, growth as area under curve vs untreated control
Protocol: (§1) To allow a reasonable comparison between antimycotic drugs, the concentrations to be used in the following tests was determined first. Thus, the antimycotic effect was determined by microtiter plate laser nephelometry (MLN).
(§2) MLN is a direct method for measuring light, which is scattered by particles suspended in a solution in angles of up to 90 degree. With this technique, already minor particle concentrations can be determined in a suspension. Thus, this method provides a higher sensitivity than usual transmission readers, which detect the reduction of the intensity of light passing a suspension. Further, it is a very reliable technique for application in a 96-well format. It can be used to monitor the growth of microorganisms by the turbidity of the respective medium and to examine the effect of antimicrobial substances on the growth of microorganisms. Compared to other applied methods, MLN allows high throughput screenings, incubation over a long time and in situ monitoring of changes in the dose-response-curves.
(§3) Moreover, in most techniques, the minimum inhibitory concentration (MIC) can only be determined afterwards, whereas MLN allows the in situ acquisition of dose-response-curves and the simultaneous monitoring of changes in the IC50.
(§4) Candida albicans DSM 1386, Candida parapsilosis DSM 5784, Trichophyton rubrum DSM 16111,Trichophyton interdigitale IHEM 22939, Trichophyton soudanense DSM 103786, and Trichophyton mentagrophytes DSM 107608 were obtained from the DSMZ (German Collection of Microorganisms and Cell Cultures; Deutsche Sammlung von Mikroorganismen und Zellkulturen). Epidermophyton floccosum and Scorpolariopsis brevicaulis were obtained from a round robin test.
(§5) The yeasts were cultivated in Sabouraud-Glucose-Bouillon (SGB; Merck) for 24 h at 37°C at aerobic conditions. Dermatophytes were cultivated on Dermasel-Agarplates (Oxoid) for 3 weeks and subsequently treated with 5 mL sterile, physiological saline solution (Lot 14HD24, Fresenius Kabi Deutschland GmbH) for detaching the spores. The spore suspensions were transferred into sterile 50-ml-tubes (Greiner Bio-One), vortexed for 20 s and separated by cell sieves (40 µm, Greiner Bio-One). Subsequently, the spore number was determined via Neubauer-improved counting chambers and the spore suspension was adjusted to approximately 2 × 10^3/ml in SBG (Merck) for the MLN-experiments.
(§6) Solutions of sertaconazol, ciclopiroxolamin and terbinafin were prepared as 10 µg/µL DMSO (Sigma-Aldrich). The respective test concentrations were then obtained by diluting these solutions in SGB (Merck).
(§7) The MLN-test was then performed according to NCCLS M27-A2 and DIN EN 27027 as previously described (Burmester A, Hipler UC, Uhrlaß S, Nenoff P, Singal A, Verma SB, Elsner P, Wiegand C. Indian Trichophyton mentagrophytes squalene epoxidase erg1 double mutants show high proportion of combined fluconazole and terbinafine resistance. Mycoses. 2020; doi: 10.111 1/myc.13150). […] of the respective dilutions of sertaconazol, ciclopiroxolamin or terbinafin were added to the respective wells of a sterile, clear 96-well microplate (Greiner Bio-One) in quadruplicates together with 100 µL of the microorganism suspensions (as above). Blanks for each analysed substance concentration were added to each assay. The microtiter plates were sealed with a transparent foil (Greiner Bio-One). To allow the gas exchange, a perforation was applied to the right edge of the respective wells. The microtiter plates were then inserted in the microtiter plate laser nephelometer (NEPH-ELOstar Galaxy, BMG Labtech) and incubated at 37 °C while shaking for 48 h (yeasts) or, respectively, 120 h (mold, dermatophytes). For determining the growth of the microorganisms, the turbidity of each analysed substrate concentration was assigned to the incubation time. Subsequently, the area under curve was determined by the results and calculated as percentage of the untreated control (growth [%]). […]

[2] = test system: Candida albicans DSM 1386; conditions: for IC50: DSM1386, C. albicans (yeast), SGB, 37 °C, 48 h, growth as area under curve vs untreated control; for MIC: DSM1386, C. albicans, plating of wells without visible growth in the MLN-test
Protocol: as §1, §2, §3, §4, §5, §6, §7

[3] = test system: Trichophyton rubrum DSM 16111; conditions: DSM16111, T. rubrum; for MIC: plating of wells without visible growth in the MLN-test; for IC50: spore suspension in SGB, 37 °C, 120 h, growth as area under curve vs untreated control
Protocol: as §1, §2, §3, §4, §5, §6, §7

S. brevicaulis = conditions: Scopulariopsis brevicaulis; for IC50: S. brevicaulis (mold), SGB, 37 °C, 120 h, growth as area under curve vs untreated control; for MIC: S. brevicaulis, plating of wells without visible growth in the MLN-test
Protocol: as §1, §2, §3, §4, §5, §6, §7

[4] = test system: Trichophyton mentagrophytes DSM 107608; conditions: DSM107608, T. mentagrophytes; for MIC: plating of wells without visible growth in the MLN-test; for IC50: spore suspension in SGB, 37 °C, 120 h, growth as area under curve vs untreated control
Protocol: as §1, §2, §3, §4, §5, §6, §7

Epidermophyton floccosum = conditions: E. floccosum; for MIC: plating of wells without visible growth in the MLN-test; for IC50: spore suspension in SGB, 37 °C, 120 h, growth as area under curve vs untreated control
Protocol: as §1, §2, §3, §4, §5, §6, §7

[5] = test system: Trichophyton interdigitale IHEM 22939; conditions: IHEM22939, T. interdigitale; for MIC: plating of wells without visible growth in the MLN-test; for IC50: spore suspension in SGB, 37 °C, 120 h, growth as area under curve vs untreated control
Protocol: as §1, §2, §3, §4, §5, §6, §7

[6] = test system: Candida parapsilosis DSM 5784; conditions: Lodderomyces parapsilosis, DSM5784; for IC50: C. parapsilosis (yeast), SGB, 37 °C, 48 h, growth as area under curve vs untreated control; for MIC: C. parapsilosis, plating of wells without visible growth in the MLN-test
Protocol: as §1, §2, §3, §4, §5, §6, §7

| MIC [1] [µg/mL] | IC50 [1] [ng/mL] | IC50 [2] [µg/mL] | MIC [2] [µg/mL] | MIC [3] [µg/mL] | IC50 [3] [ng/mL] | IC50 (S. brevicaulis) [µg/mL] | MIC (S. brevicaulis) [µg/mL] | MIC [4] [µg/mL] | IC50 [4] [µg/mL] | MIC (Epidermophyton floccosum) [µg/mL] | IC50 (Epidermophyton floccosum) [µg/mL] | MIC [5] [µg/mL] | IC50 [5] [µg/mL] | IC50 [6] [µg/mL] | MIC [6] [µg/mL] | SMILES |
| --- | --- | --- | --- | --- | --- | --- | --- | --- | --- | --- | --- | --- | --- | --- | --- | --- |
| 5.5 (≈ 26.5 µM) | 1430 ± 780 (≈ 6.9 µM) | 4.01 ± 0.71 (≈ 19.3 µM) | 40 (≈ 193 µM) | 10 (≈ 48.2 µM) | 1020 ± 220 (≈ 4.92 µM) | 4.85 ± 1.79 (≈ 23.4 µM) | 60 (≈ 289 µM) | 10 (≈ 48.2 µM) | 2.09 ± 0.78 (≈ 10.1 µM) | 7.5 (≈ 36.2 µM) | 1.46 ± 0.22 (≈ 7.04 µM) | 10 (≈ 48.2 µM) | 2.62 ± 0.62 (≈ 12.6 µM) | 4.73 ± 0.09 (≈ 22.8 µM) | 80 (≈ 386 µM) | Cc1cc(C2CCCCC2)n(O)c(=O)c1 [Ciclopiroxolamin, ciclopiroxolamin] |
| 3.1 (≈ 7.08 µM) | 1.4 ± 0.1 (≈ 0.0032 µM) | 0.54 ± 0.12 (≈ 1.23 µM) | 40 (≈ 91.4 µM) | 1.3 (≈ 2.97 µM) | 2.8 ± 0.3 (≈ 0.0064 µM) | 0.11 ± 0.03 (≈ 0.251 µM) | 7.5 (≈ 17.1 µM) | 3.8 (≈ 8.68 µM) | 0.018 ± 0.003 (≈ 0.0411 µM) | 1.6 (≈ 3.65 µM) | 0.022 ± 0.003 (≈ 0.0503 µM) | 12.5 (≈ 28.6 µM) | 0.39 ± 0.01 (≈ 0.891 µM) | 0.0025 ± 0.0001 (≈ 0.00571 µM) | 20 (≈ 45.7 µM) | Clc1ccc(C(Cn2ccnc2)OCc2csc3c(Cl)cccc23)c(Cl)c1 (centres unmarked) [Sertaconazol, sertaconazol] |
| 0.015 (≈ 0.0515 µM) | 1.6 ± 0.5 (≈ 0.00549 µM) | 24.2 ± 2.99 (≈ 82.9 µM) | – | 0.006 (≈ 0.0206 µM) | 1.5 ± 0.2 (≈ 0.00515 µM) | 0.69 ± 0.03 (≈ 2.37 µM) | 40 (≈ 137 µM) | 20 (≈ 68.6 µM) | 4.66 ± 0.04 (≈ 16 µM) | 0.02 (≈ 0.0686 µM) | 0.0021 ± 0.0001 (≈ 0.00721 µM) | 0.02 (≈ 0.0686 µM) | 0.0038 ± 0.0008 (≈ 0.013 µM) | 0.098 ± 0.002 (≈ 0.336 µM) | 3.8 (≈ 13 µM) | CN(C/C=C/C#CC(C)(C)C)Cc1cccc2ccccc12 [Terbinafin, terbinafin] |
